Laboratory results as given in US6245917A, “Crystalline sodium phenytoin monohydrate” (Warner-Lambert Company, priority 1999, dated 2001).

Experiment: Repeated water uptake study with solvent-free SPM (dichloromethane preparation)
Format: physicochemical
Excerpt: Study of weight change under controlled humidity conditions, samples were placed in open vials, which were placed in closed controlled-humidity jars. Relative humidities were controlled using saturated aqueous salt solutions: 58% RH, NaBr; 75% RH, (NH4)2 SO4; 76%, sodium acetate; 84% RH, KBr.
A possible cause of the observed weight loss is that some reaction solvent (toluene in this case) from the preparation of SPM remained on the solid and evaporated in the humidity jars. To test this theory, it was decided to prepare SPM, show it to be solvent-free, and repeat the water uptake studies. Dichloromethane was chosen as the organic solvent for the preparation rather than toluene because its lower boiling point should allow it to be removed from the solid more easily and completely. SPM was made by stirring a slurry of SPA and one equivalent of water in dichloromethane for 2 days, then isolation by filtration and air-drying of the solid SPM.
The remainder of the SPM sample was allowed to dry in an open jar under ambient conditions for about 1 week. It was then characterized by XRPD elemental analysis, and Karl Fischer (KF) analysis. The sample appears to be pure SPM containing very little, if any, residual solvent.
Both SPM and SPA increased in weight about 20% when equilibrium was reached (constant weight) at each humidity utilized. The samples were analyzed by XRPD after completion of the water uptake experiments. […] The nature of this form has not been determined.

O=C1NC(=O)C(c2ccccc2)(c2ccccc2)N1 [SPA, sodium phenytoin anhydrate, reference compound]
Percent change based on average of final two weights (58% RH): +19% | sample weight (58% RH, day 0 (starting weight)): 1.5087 g | change in starting weight (58% RH, day 1): +0.0263 g | sample weight (58% RH, day 1): 1.5350 g | change in starting weight (58% RH, day 2): +0.0510 g | sample weight (58% RH, day 2): 1.5597 g | change in starting weight (58% RH, day 3): +0.0793 g | sample weight (58% RH, day 3): 1.5880 g | change in starting weight (58% RH, day 4): +0.1011 g | sample weight (58% RH, day 4): 1.6098 g | change in starting weight (58% RH, day 5): +0.1111 g | sample weight (58% RH, day 5): 1.6198 g | change in starting weight (58% RH, day 6): +0.1208 g | sample weight (58% RH, day 6): 1.6295 g | change in starting weight (58% RH, day 7): +0.1333 g | sample weight (58% RH, day 7): 1.6420 g | change in starting weight (58% RH, day 8): 0.1487 g | change in starting weight (58% RH, day 10): +0.1797 g | change in starting weight (58% RH, day 12): +0.2166 g | sample weight (58% RH, day 12): 1.7253 g | change in starting weight (58% RH, day 13): +0.2250 g | sample weight (58% RH, day 13): 1.7337 g | change in starting weight (58% RH, day 14): +0.2338 g | sample weight (58% RH, day 14): 1.7425 g | change in starting weight (58% RH, day 15): +0.2445 g | sample weight (58% RH, day 15): 1.7532 g | change in starting weight (58% RH, day 16): +0.2531 g | sample weight (58% RH, day 16): 1.7618 g | change in starting weight (58% RH, day 17): +0.2593 g | sample weight (58% RH, day 17): 1.7680 g | change in starting weight (58% RH, day 21): +0.2773 g | sample weight (58% RH, day 21): 1.7860 g | change in starting weight (58% RH, day 23): +0.2818 g | sample weight (58% RH, day 23): 1.7905 g | change in starting weight (58% RH, day 26): +0.2818 g | Percent change based on average of final two weights (75% RH): +21% | sample weight (75% RH, day 0 (starting weight)): 1.5037 g | change in starting weight (75% RH, day 1): +0.0581 g | sample weight (75% RH, day 1): 1.5618 g | change in starting weight (75% RH, day 2): +0.1166 g | sample weight (75% RH, day 2): 1.6203 g | change in starting weight (75% RH, day 3): +0.1625 g | sample weight (75% RH, day 3): 1.6662 g | change in starting weight (75% RH, day 4): +0.2103 g | sample weight (75% RH, day 4): 1.7140 g | change in starting weight (75% RH, day 5): +0.2501 g | sample weight (75% RH, day 5): 1.7538 g | change in starting weight (75% RH, day 6): +0.2825 g | sample weight (75% RH, day 6): 1.7862 g | change in starting weight (75% RH, day 7): +0.3054 g | sample weight (75% RH, day 7): 1.8091 g | change in starting weight (75% RH, day 8): +0.3152 g | change in starting weight (75% RH, day 10): +0.3165 g | change in starting weight (75% RH, day 12): +0.3197 g | sample weight (75% RH, day 12): 1.8234 g | change in starting weight (75% RH, day 13): +0.3171 g | sample weight (75% RH, day 13): 1.8208 g | change in starting weight (75% RH, day 14): +0.3152 g | sample weight (75% RH, day 14): 1.8189 g | change in starting weight (75% RH, day 15): +0.3146 g | sample weight (75% RH, day 15): 1.8183 g | change in starting weight (75% RH, day 16): +0.3139 g | sample weight (75% RH, day 16): 1.8176 g | change in starting weight (75% RH, day 17): +0.3117 g | sample weight (75% RH, day 17): 1.8154 g | Percent change based on average of final two weights (84% RH): +22% | sample weight (84% RH, day 0 (starting weight)): 1.5023 g | change in starting weight (84% RH, day 1): +0.0712 g | sample weight (84% RH, day 1): 1.5735 g | change in starting weight (84% RH, day 2): +0.1330 g | sample weight (84% RH, day 2): 1.6353 g | change in starting weight (84% RH, day 3): +0.1952 g | sample weight (84% RH, day 3): 1.6975 g | change in starting weight (84% RH, day 4): +0.2498 g | sample weight (84% RH, day 4): 1.7521 g | change in starting weight (84% RH, day 5): +0.2949 g | sample weight (84% RH, day 5): 1.7972 g | change in starting weight (84% RH, day 6): +0.3169 g | sample weight (84% RH, day 6): 1.8192 g | change in starting weight (84% RH, day 7): +0.3275 g | sample weight (84% RH, day 7): 1.8298 g | change in starting weight (84% RH, day 8): +0.3301 g | change in starting weight (84% RH, day 12): +0.3322 g | sample weight (84% RH, day 12): 1.8345 g | change in starting weight (84% RH, day 13): +0.3288 g | sample weight (84% RH, day 13): 1.8311 g | change in starting weight (84% RH, day 14): +0.3260 g | sample weight (84% RH, day 14): 1.8283 g | change in starting weight (84% RH, day 15): +0.3255 g | sample weight (84% RH, day 15): 1.8278 g | change in starting weight (84% RH, day 16): +0.3249 g | sample weight (84% RH, day 16): 1.8272 g | change in starting weight (84% RH, day 17): +0.3225 g | sample weight (84% RH, day 17): 1.8248 g
